PubChem BioAssay (NCI)
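How tested: cells in 96-well plates exposed to compound for 48 hours at five concentrations. GI50 marks 50% less growth. At the TGI there is no net growth.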

Assays:
Test in all cases: NCI tumour cell line growth inhibition, 48 h
[1] = tested on: UACC-257 melanoma
[2] = tested on: IGROV1 ovarian
[3] = tested on: HOP-62 NSCLC
[4] = tested on: OVCAR-4 ovarian
[5] = tested on: SK-MEL-28 melanoma
[6] = tested on: HCT-15 colon
[7] = tested on: UO-31 renal
[8] = tested on: UACC-62 melanoma
[9] = tested on: SF-539 CNS
[10] = tested on: PC-3 prostate
[11] = tested on: HOP-92 NSCLC
[12] = tested on: NCI-H460 lung
[13] = tested on: MCF7 breast
[14] = tested on: SK-MEL-5 melanoma
[15] = tested on: T-47D breast
[16] = tested on: M14 melanoma
[17] = tested on: OVCAR-3 ovarian
[18] = tested on: SR leukemia
[19] = tested on: SW-620 colon
[20] = tested on: NCI-H522 lung
[21] = tested on: SF-268 CNS
[22] = tested on: MDA-MB-435
[23] = tested on: RPMI-8226 leukemia
[24] = tested on: SN12C renal
[25] = tested on: K-562 leukemia
[26] = tested on: NCI/ADR-RES ovarian
[27] = tested on: NCI-H23 lung
[28] = tested on: EKVX NSCLC
[29] = tested on: SNB-19 CNS
[30] = tested on: SK-OV-3 ovarian
[31] = tested on: CAKI-1 renal
[32] = tested on: ACHN renal
[33] = tested on: RXF 393 renal
[34] = tested on: OVCAR-8 ovarian
[35] = tested on: COLO 205 colon
[36] = tested on: 786-0 renal
[37] = tested on: BT-549 breast
[38] = tested on: A549 NSCLC
[39] = tested on: SF-295 CNS
[40] = tested on: OVCAR-5 ovarian
[41] = tested on: MDA-MB-231 breast
[42] = tested on: LOX IMVI melanoma
[43] = tested on: DU-145 prostate
[44] = tested on: HCT-116 colon
[45] = tested on: HS 578T breast
[46] = tested on: HL-60(TB) leukemia
[47] = tested on: SK-MEL-2 melanoma
[48] = tested on: TK-10 renal
[49] = tested on: U251 CNS
[50] = tested on: SNB-75 CNS
[51] = tested on: KM12 colon
[52] = tested on: MOLT-4 leukemia
[53] = tested on: MALME-3M melanoma
[54] = tested on: HT29 colon
[55] = tested on: HCC-2998 colon
[56] = tested on: A498 renal
[57] = tested on: NCI-H226 lung
[58] = tested on: CCRF-CEM leukemia

In the case of `COc1ccc(Cn2c(N)c(S(=O)(=O)c3ccc(Cl)cc3)c3nc(C#N)c(C#N)nc32)cc1`, the GI50 [1] is reported as over 50 µM, the TGI [1] is reported as over 50 µM and the GI50 [2] is reported as 21.6 µM. It also gave a TGI [2] of over 50 µM, a GI50 [3] of over 50 µM and a TGI [3] of over 50 µM. The GI50 [4] was 25.2 µM, the TGI [4] was over 50 µM and the GI50 [5] was over 50 µM. The TGI [5] was over 50 µM, the GI50 [6] was over 50 µM and the TGI [6] was over 50 µM. The GI50 [7] was 32.6 µM, the TGI [7] was over 50 µM and the GI50 [8] was 4.36 µM. For the same molecule, the TGI [8] was 17.8 µM, the GI50 [9] was over 50 µM and the TGI [9] was over 50 µM. It also gave a GI50 [10] of 33.5 µM, a TGI [10] of over 50 µM and a GI50 [11] of 11.1 µM. It also gave a TGI [11] of over 50 µM, a GI50 [12] of 2.94 µM and a TGI [12] of over 50 µM. It also gave a GI50 [13] of 5.85 µM, a TGI [13] of over 50 µM and a GI50 [14] of 49.4 µM. The TGI [14] was over 50 µM, the GI50 [15] was over 50 µM and the TGI [15] was over 50 µM. The GI50 [16] was 24.8 µM, the TGI [16] was over 50 µM and the GI50 [17] was 2.9 µM. The TGI [17] was 19.4 µM, the GI50 [18] was 29.9 µM and the TGI [18] was over 50 µM. It also gave a GI50 [19] of over 50 µM, a TGI [19] of over 50 µM and a GI50 [20] of 5.82 µM. It also gave a TGI [20] of over 50 µM, a GI50 [21] of 9.25 µM and a TGI [21] of 42.3 µM. For the same molecule, the GI50 [22] was over 50 µM, the TGI [22] was over 50 µM and the GI50 [23] was 22.5 µM. The TGI [23] was over 50 µM, the GI50 [24] was 1.45 µM and the TGI [24] was 17.9 µM. The GI50 [25] was over 50 µM, the TGI [25] was over 50 µM and the GI50 [26] was 1.15 µM. For the same molecule, the TGI [26] was 6 µM, the GI50 [27] was 17 µM and the TGI [27] was over 50 µM. For the same molecule, the GI50 [28] was over 50 µM, the TGI [28] was over 50 µM and the GI50 [29] was 18 µM. It also gave a TGI [29] of over 50 µM, a GI50 [30] of 10.8 µM and a TGI [30] of 49.4 µM. It also gave a GI50 [31] of 21.9 µM, a TGI [31] of over 50 µM and a GI50 [32] of 6.22 µM. It also gave a TGI [32] of over 50 µM, a GI50 [33] of 1.45 µM and a TGI [33] of 5.37 µM. For the same molecule, the GI50 [34] was 7.55 µM, the TGI [34] was over 50 µM and the GI50 [35] was over 50 µM. It also gave a TGI [35] of over 50 µM, a GI50 [36] of 3.33 µM and a TGI [36] of over 50 µM. It also gave a GI50 [37] of 34.3 µM, a TGI [37] of over 50 µM and a GI50 [38] of 18.2 µM. It also gave a TGI [38] of over 50 µM, a GI50 [39] of 10.8 µM and a TGI [39] of over 50 µM. For the same molecule, the GI50 [40] was 12.2 µM, the TGI [40] was over 50 µM and the GI50 [41] was 3.1 µM. It also gave a TGI [41] of 20.9 µM, a GI50 [42] of 8.27 µM and a TGI [42] of 38.3 µM. The GI50 [43] was 20.2 µM, the TGI [43] was over 50 µM and the GI50 [44] was over 50 µM. For the same molecule, the TGI [44] was over 50 µM, the GI50 [45] was 14.6 µM and the TGI [45] was over 50 µM. For the same molecule, the GI50 [46] was over 50 µM, the TGI [46] was over 50 µM and the GI50 [47] was 29.8 µM. It also gave a TGI [47] of over 50 µM, a GI50 [48] of 11.6 µM and a TGI [48] of 41.5 µM. For the same molecule, the GI50 [49] was 10.1 µM, the TGI [49] was 30.3 µM and the GI50 [50] was over 50 µM. It also gave a TGI [50] of over 50 µM, a GI50 [51] of 28 µM and a TGI [51] of over 50 µM.

Molecule `C[C@H]1CN[C@@H]2[C@@H](C)[C@H]3[C@@H](C[C@H]4[C@@H]5CC[C@H]6C[C@@H](N)CC[C@]6(C)[C@H]5CC[C@]34C)O[C@@]2(O)C1` has a TGI [1] of 3.74 µM, a TGI [2] of 9.66 µM and a TGI [4] of 17.5 µM. The TGI [5] was 4.23 µM, the TGI [6] was 4.5 µM and the TGI [7] was 5.79 µM. The TGI [8] was 4.6 µM, the TGI [9] was 3.27 µM and the TGI [10] was 13.9 µM. It also gave a TGI [11] of 11.4 µM, a TGI [12] of 7.78 µM and a TGI [13] of 26.3 µM. It also gave a TGI [14] of 10.4 µM, a TGI [15] of 4.51 µM and a TGI [16] of 4.73 µM. The TGI [17] was 5.96 µM, the TGI [52] was 7.77 µM and the TGI [19] was 6.23 µM. It also gave a TGI [53] of 3.23 µM, a TGI [20] of 5.91 µM and a TGI [21] of 7.15 µM. For the same molecule, the TGI [54] was 3.9 µM, the TGI [22] was 3.71 µM and the TGI [55] was 6.23 µM. It also gave a TGI [24] of 4.25 µM, a TGI [25] of 41.9 µM and a TGI [26] of 5.66 µM. It also gave a TGI [27] of 26.9 µM, a TGI [28] of 14.9 µM and a TGI [29] of 6.96 µM. For the same molecule, the TGI [30] was 19.7 µM, the TGI [31] was 6.43 µM and the TGI [32] was 9.3 µM. For the same molecule, the TGI [34] was 4.78 µM, the TGI [35] was 7.69 µM and the TGI [36] was 3.66 µM. For the same molecule, the TGI [37] was 7.24 µM, the TGI [38] was 17.3 µM and the TGI [39] was 10.3 µM. The TGI [40] was 19.6 µM, the TGI [41] was 4.3 µM and the TGI [42] was 4.08 µM. The TGI [43] was 16.9 µM, the TGI [44] was 3.14 µM and the TGI [56] was 1.44 µM. For the same molecule, the TGI [57] was 5.77 µM, the TGI [45] was 6.55 µM and the TGI [46] was 4.08 µM. For the same molecule, the TGI [47] was 12.2 µM, the TGI [58] was 4.27 µM and the TGI [48] was 11.7 µM. The TGI [49] was 4.9 µM, the TGI [50] was 9.52 µM and the TGI [51] was 11.1 µM.

`C=CCN(C(=O)CNC(=O)C(F)(F)F)c1cc(OCc2ccccc2)c2c(c1)c(C)cn2S(=O)(=O)c1ccccc1` gave a TGI [1] of over 100 µM, a TGI [2] of over 100 µM and a TGI [3] of over 100 µM. The TGI [4] was over 100 µM, the TGI [5] was over 100 µM and the TGI [6] was over 100 µM. It also gave a TGI [7] of 15.6 µM, a TGI [8] of over 100 µM and a TGI [9] of over 100 µM. The TGI [10] was over 100 µM, the TGI [11] was over 100 µM and the TGI [12] was over 100 µM. The TGI [13] was over 100 µM, the TGI [14] was over 100 µM and the TGI [15] was over 100 µM. For the same molecule, the TGI [16] was over 100 µM, the TGI [17] was over 100 µM and the TGI [52] was over 100 µM. The TGI [53] was over 100 µM, the TGI [20] was over 100 µM and the TGI [21] was over 100 µM. For the same molecule, the TGI [54] was over 100 µM, the TGI [22] was over 100 µM and the TGI [55] was over 100 µM. The TGI [23] was over 100 µM, the TGI [24] was over 100 µM and the TGI [25] was over 100 µM. The TGI [26] was over 100 µM, the TGI [27] was over 100 µM and the TGI [28] was over 100 µM. It also gave a TGI [29] of over 100 µM, a TGI [30] of over 100 µM and a TGI [31] of over 100 µM. The TGI [32] was over 100 µM, the TGI [33] was over 100 µM and the TGI [34] was over 100 µM. For the same molecule, the TGI [35] was over 100 µM, the TGI [36] was over 100 µM and the TGI [37] was over 100 µM. The TGI [38] was over 100 µM, the TGI [39] was over 100 µM and the TGI [40] was over 100 µM. For the same molecule, the TGI [41] was over 100 µM, the TGI [42] was over 100 µM and the TGI [43] was over 100 µM. It also gave a TGI [44] of over 100 µM, a TGI [57] of over 100 µM and a TGI [45] of over 100 µM. The TGI [47] was over 100 µM, the TGI [58] was over 100 µM and the TGI [48] was over 100 µM. For the same molecule, the TGI [49] was over 100 µM, the TGI [50] was over 76.2 µM and the TGI [51] was over 100 µM.
